Peptide text beside a SMILES is read from it.
What was measured:
MDA-MB-231 cells = assay: Cytotoxicity of peptides and peptide/siRNA complexes in MDA-MB-231 cells (MTT / CCK); type: cell-based, human; settings: as compared to commercial agent lipofectamine
Experimental: (§1) The binding affinity for [CR4W4C] […] The toxicity of the peptides was evaluated in triple-negative breast cancer (TNBC) cells MDA-MB-231 (as a model cancer cell line) with peptide alone and siRNA complexes, and CCK assay to quantify cell viability after 48 hours.
The human breast cancer cell line MDA-MB-231 was purchased from American Type Culture Collection (ATCC; Manassas, VA). MDA-MB-231 was cultured in the DMEM medium. The media was supplemented with 10% (v/v) fetal bovine serum, 100 U/mL penicillin, and 100 μg/ml streptomycin. Cells were maintained in the normal condition of 37° C. and 5% CO2 under a humidified atmosphere and were sub-cultured when 80-100% confluent.
Toxicity of the Peptide/siRNA Complexes: The effect of peptides on the viability of human cell lines was evaluated by exposing the MDA-MB-231 cell lines (FIGS. 9-12) to different concentrations of peptide solution and exposing the cells to peptide/siRNA complexes prepared with different peptides at a various peptide:siRNA ratios according to the previously reported procedure by us (Mozaffari S, Bousoik E, Amirrad F, Lamboy R, Coyle M, Hall R, Alasmari A, Mahdipoor P, Parang K, Montazeri Aliabadi H. Amphiphilic Peptides for Efficient siRNA Delivery. Polymers (Basel). 2019; 11(4). doi: 10.3390/polym11040703. PubMed PMID: 30999603; PMCID: PMC6523661). […]

siRNA = assay: Serum stability / protection of siRNA against enzymatic degradation in fetal bovine serum; type: in vitro ADME; settings: 24 hours of exposure to serum, N/P ratio of 40, compared to siRNA exposed to saline
Source text: Serum Stability. In order to determine the capability of the complexes to protect the siRNA against enzymatic degradation, Inventors exposed different study groups to a diluted fetal bovine serum (FBS) solution, with “naked” siRNA as a positive control, and siRNA exposed to saline as a negative control according to the previously reported procedure (Mozaffari S, Bousoik E, Amirrad F, Lamboy R, Coyle M, Hall R, Alasmari A, Mahdipoor P, Parang K, Montazeri Aliabadi H. Amphiphilic Peptides for Efficient siRNA Delivery. Polymers (Basel). 2019; 11(4) doi: 10.3390/polym11040703. PubMed PMID: 30999603; PMCID: PMC6523661).
as §1
Protection of siRNA against Enzymatic Degradation. […] After the incubation, complexes were dissociated using a 2:3 mixture of heparin (5% solution in normal saline) and EDTA (0.5 mM), and the samples were analyzed using a 1% agarose gel (with 1 μg/mL ethidium bromide) at 70 V for 20 minutes. UV illumination (Gel-Doc system, Bio-Rad; Hercules, CA) was used to visualize the gel, and the intensity of the bands (representing remaining intact siRNA) was quantified by Image J software (FIG. 8).

Row | protection of siRNA in the presence of serum (siRNA) | SMILES | toxicity (MDA-MB-231 cells)
1 | protect siRNA completely | N=C(N)NCCC[C@@H]1NC(=O)[C@H](CCCNC(=N)N)NC(=O)[C@H](CCCNC(=N)N)NC(=O)[C@H](CCCNC(=N)N)NC(=O)[C@H](CCCNC(=N)N)NC(=O)[C@@H](NC(=O)[C@H](Cc2c[nH]c3ccccc23)NC(=O)[C@H](Cc2c[nH]c3ccccc23)NC(=O)[C@H](Cc2c[nH]c3ccccc23)NC(=O)[C@@H](N)Cc2c[nH]c3ccccc23)CSSC[C@@H](C(=O)N[C@@H](Cc2c[nH]c3ccccc23)C(=O)N[C@@H](Cc2c[nH]c3ccccc23)C(=O)N[C@@H](Cc2c[nH]c3ccccc23)C(=O)N[C@@H](Cc2c[nH]c3ccccc23)C(=O)O)NC1=O [W4[CR5C]W4] (HELM PEPTIDE1{W.W.W.W.C.R.R.R.R.R.C.W.W.W.W}$PEPTIDE1,PEPTIDE1,5:R3-11:R3$$$V2.0; N-terminus and C-terminus assumed) | without toxicity
2 | protect siRNA completely | N=C(N)NCCC[C@@H]1NC(=O)[C@H](CCCNC(=N)N)NC(=O)[C@H](CCCNC(=N)N)NC(=O)[C@H](CCCNC(=N)N)NC(=O)[C@@H](N)CSSC[C@@H](C(=O)O)NC(=O)[C@H](Cc2c[nH]c3ccccc23)NC(=O)[C@H](Cc2c[nH]c3ccccc23)NC(=O)[C@H](Cc2c[nH]c3ccccc23)NC(=O)[C@H](Cc2c[nH]c3ccccc23)NC1=O [[CR4W4C]] (HELM PEPTIDE1{C.R.R.R.R.W.W.W.W.C}$PEPTIDE1,PEPTIDE1,1:R3-10:R3$$$V2.0; N-terminus and C-terminus assumed) | without toxicity

Source: patent US20240336655A1, “AMPHIPHILIC PEPTIDES FOR NUCLEIC ACID AND PROTEIN DELIVERY” (AJK BIOPHARMACEUTICAL, LLC, priority 2021, published 2024)
